Data from patent US8372973B2, “Prokineticin 1 receptor antagonists” (Janssen Pharmaceutica N.V., priority 2005, dated 2013).
Where “and” joins values, the source holds several entries; their conditions need not be identical. Equal values may be shown once. Entries after “also recorded” stand apart in the source; their conditions may differ. Read-outs that look alike come from different tables or passages of the source.

How the values were obtained:
[1] = molecular target: T1, GPR73 (prokineticin 1 receptor) (Homo sapiens, UniProt Q8TCW9); experiment: PK1 functional assay: Ca2+ mobilization on the FLIPR; type: cell-based; settings: for inhibition at 10 µM: read-out: Ca^2+ Mobilization % Inh @10 μM; for IC50: HEK 293 GPR73 expressing cells, PK1 ligand preparation at its EC50, read-out: Ca^2+ Mobilization IC50
T1 construct: expressed in transfected cells; host or cells: HEK 293
Procedure: At a time of 24 h prior to running the assay, in cell culture media (DMEM containing high Glucose and L-glutamine, 10% FBS, 1% Pen/Streptomycin, 1% Sodium Pyruvate, 20 mM HEPES, Zeocin 200 mg/L), […] of 1.3*10^6/ml HEK 293 GPR73 (prokineticin 1 receptor) expressing cells were plated in a 96 well poly-d-lysine coated plate (Costar), and incubated at 37° C. and 5% CO2. On the day in which the assay was run, the media was removed and […] of 5× Calcium Plus Dye (Molecular Devices) which was previously resuspended with 200 mL of assay buffer [HBSS w/Ca^2+ and Mg^2+ w/o phenol red, 20 mM HEPES, 0.1% BSA, 10 mL probenecid (710 mg probenecid in 5 mL of 1N NaOH, to which was then added 5 mL HBSS containing 20 mM HEPES)] was added to each well of the 96-well plate. The plate was incubated at 37° C. and 5% CO2 for 30 min in dark. The plate was removed and allowed to reach RT for 15 min in the dark. The assay was then run on the FLIPR. In Brief: base line read for 1 min, compound added (25 μL) and incubated for 4 min, 15 seconds, PK1 ligand preparation added (25 μL) for a final concentration of a previously determined EC50 and fluorescence was counted for 1 min, 45 seconds. Baseline is described as the amount of relative fluorescence read when buffer alone is added to cells. Baseline was subtracted from all wells. Percent of control was calculated as follows:
(Baseline subtracted well value is divided by baseline subtracted max value)*100. Percent inhibition is 100 minus the percent of control value.
The IC50 is defined as the amount of a given compound required to inhibit 50% of the maximum signal that is generated by the concentration of PK1 preparation used in our assay. IC50 values were calculated using GraphPad Prism.

[2] = tested on: pro-secretory effect of carbachol; experiment: Selectivity test against carbachol-evoked secretion in rat ileum mucosa, Ussing-type chambers
[3] = tested on: Cholera toxin stimulated gut secretion; parameters: species or system rat
[4] = molecular target: T2, PK1 receptor (Rattus norvegicus, UniProt Q8R416); experiment: Suppression of PK1-evoked increase in Isc in isolated rat ileum mucosa, Ussing-type chambers; settings: 1 μM test compound, 15 min; PK1 10 and 100 nM cumulative
T2 construct: The PK1 evoked increase in Isc requires the presence of endogenous PK1 receptors; from tissue; host or cells: isolated rat ileum mucosa
Procedure: Methodology. The basic methodology for Ussing-type ion flux chambers used in these studies was the same as that described in detail above with the following modifications to the experimental protocol. […] The responses to two sequential EFS were used to gauge tissue viability and comparability of the responses of individual tissues from each rat and between rats. Tissue conductance was measured at periodic intervals as changes in the amplitudes of brief short-circuit current responses evoked by application of 1 mV amplitude bi-polar pulses from a pulse generator using Ohm's Law. Three to four tissues from each rat were studied. The tissues from a given animal were grouped and assigned accordingly: one control tissue which received only vehicle followed by two consecutive doses of PK-1 ligand added in a cumulative fashion to the basolateral surface of the tissue; the remaining two to three tissues from the same animal were assigned to be exposed to a given PK-1 receptor antagonist (e.g., 3-4 tissues from 1 rat: Control, Antagonist1, Antagonist2, and/or Antagonist3). Test compound was added to the basolateral tissue side reservoir at a final concentration of 1 μM and allowed a 15 minute incubation period prior to challenge with the PK1 peptide. […]

[5] = tested on: ileum mucosal tissues from PK1 receptor knock-out mice; experiment: PK1 effect on Isc in ileum mucosal tissues from PK1 receptor knock-out mice; settings: exogenous PK1 peptide

T1 sequence (Q8TCW9 whole entry, species assumed): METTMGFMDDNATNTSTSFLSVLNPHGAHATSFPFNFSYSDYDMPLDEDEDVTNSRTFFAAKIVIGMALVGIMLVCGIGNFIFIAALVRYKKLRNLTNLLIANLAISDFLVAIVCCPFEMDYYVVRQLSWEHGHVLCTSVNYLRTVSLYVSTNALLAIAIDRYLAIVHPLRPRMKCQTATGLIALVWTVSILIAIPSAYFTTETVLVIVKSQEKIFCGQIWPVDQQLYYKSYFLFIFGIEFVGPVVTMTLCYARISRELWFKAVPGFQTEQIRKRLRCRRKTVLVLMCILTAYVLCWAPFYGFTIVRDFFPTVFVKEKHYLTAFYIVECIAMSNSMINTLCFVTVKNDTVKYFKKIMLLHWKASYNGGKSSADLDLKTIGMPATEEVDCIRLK
T2 sequence (Q8R416 whole entry): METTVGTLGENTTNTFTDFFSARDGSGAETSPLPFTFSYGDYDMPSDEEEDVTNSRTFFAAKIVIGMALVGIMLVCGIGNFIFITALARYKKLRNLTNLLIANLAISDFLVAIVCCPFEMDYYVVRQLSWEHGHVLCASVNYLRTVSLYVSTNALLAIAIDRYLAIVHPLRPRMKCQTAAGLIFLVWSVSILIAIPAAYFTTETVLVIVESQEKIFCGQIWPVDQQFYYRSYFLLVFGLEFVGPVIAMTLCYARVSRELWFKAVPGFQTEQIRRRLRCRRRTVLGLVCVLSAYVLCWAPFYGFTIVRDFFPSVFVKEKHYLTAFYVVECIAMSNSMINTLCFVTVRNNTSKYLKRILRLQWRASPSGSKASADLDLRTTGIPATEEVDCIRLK

Molecule: COc1ccccc1Cn1c(=O)nc(NCc2cnc(C)cc2C)n(Cc2ccc(OC(F)F)cc2)c1=O [Cpd 193]
- inhibition at 10 µM ([1]; @10 μM compound): 39%
- IC50 [1]: > 10000 nM

Molecule: COc1ccc(Cn2c(NCc3cccnc3)nc(=O)n(Cc3ccc(OC)cc3)c2=O)cc1 [Cpd 40]
- inhibition at 10 µM ([1]; @10 μM compound): 83%
- IC50 [1]: 557 nM

Molecule: COc1ccc(Cn2c(=O)nc(NCc3cnc(C)cc3C)n(Cc3ccccc3OC)c2=O)cc1 [Cpd 106]
- Ca^2+ Mobilization % Inh @10 μM ([1]; @10 μM compound, 10 µM): 101%
- inhibition at 10 µM ([1]; @10 μM compound): 99%
- IC50 [1]: 25 nM and 74 nM

Molecule: COc1ccc(Cn2c(=O)nc(NCc3cnc(C)cc3C)n(Cc3ccc(OC(F)F)cc3)c2=O)cc1 [Cpd 96]
- inhibition at 10 µM ([1]; @10 μM compound): 92%

Molecule: COc1ccc(Cn2c(NCc3cccnc3N)nc(=O)n(Cc3ccc(OC)cc3)c2=O)cc1 [Cpd 3, 6-[(2-Amino-pyridin-3-ylmethyl)-amino]-1,3-bis-(4-methoxy-benzyl)-1H-[1,3,5]triazine-2,4-dione]
- suppression of the pro-secretory effect of carbachol (unrelated secretagogue) [2]: without inhibiting
- suppression of the pro-secretory effect of carbachol (unrelated secretagogue) ([2]; two ascending cumulative carbachol concentrations, serosal side): without inhibiting; also recorded: failed to suppress
- suppression of Cholera toxin-evoked stimulation of gut secretion (in words) [3]: suppresses
- suppression of the sustained increase in baseline Isc evoked by Cholera toxin [3]: 50-60%
- suppression of the PK1 evoked increase in Isc [4]: suppresses; also recorded: significant surmountable antagonism

B1: PK1: Recombinant human prokineticin-1 from HEK 293 cells, FLAG epitope cleaved; mixture of full-length ligand and four C-terminal residue truncated product (protein)
chain: AVITGACERDVQCGAGTCCAISLWLRGLRMCTPLGREGEECHPGSHKVPFFRKRKHHTCPCLPNLLCSRFPDGRYRCSMDLKNINF
modifications: mixture with C-terminal truncated product; Recombinant N-terminal FLAG-tagged human prokineticin-1 after enterokinase cleavage of Flag-tag
- change in Isc compared to wild-type littermates [5]: failed to elicit a significant change
